These results are taken from PubChem BioAssay (NCI).

Some test systems named below: NCI-H522 lung; HOP-92 NSCLC; 786-0 renal; SR leukemia; ACHN renal; PC-3 prostate; COLO 205 colon; HCT-15 colon; NCI-H226 lung; BT-549 breast; NCI-H23 lung; U251 CNS; KM12 colon; MALME-3M melanoma.
Test in all cases: growth of human tumour cells (NCI), 48 h

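Dose response: 5 concentrations. Exposure: 48 h. Format: 96-well plates. Endpoint: linear interpolation; highest concentration if not reached. Definition used: TGI = concentration required for complete inhibition of growth.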

Consider `O=C(CCc1cc(O)cc(O)c1)NCCc1cc(O)cc(O)c1`, for which the TGI with NCI-H522 lung, in the test with HOP-92 NSCLC, in the test with 786-0 renal, with SR leukemia, with ACHN renal and in the test with PC-3 prostate was more than 100 µM throughout. For the same molecule, the TGI in the test with COLO 205 colon, in the test on HCT-15 colon, in the test on NCI-H226 lung, in the test with BT-549 breast, in the test with NCI-H23 lung and in the test with U251 CNS was more than 100 µM each time. The TGI in the test with KM12 colon was more than 100 µM.

Take `CC(=O)OC1O[C@@H](C(C)(C)O)CC[C@@H]1[C@H]1CC[C@@]2(C)C3=C(CC[C@]12C)[C@@]1(C)C[C@@H](OC(=O)CC(C)(O)CC(=O)O)[C@H](OC(C)=O)C(C)(C)C1CC3` (stereo partly drawn): the TGI came to 30.8 µM with HOP-92 NSCLC; 33.9 µM in the test on 786-0 renal; 53.2 µM in the test on SR leukemia; 32.5 µM in the test with ACHN renal; 34.1 µM in the test with MALME-3M melanoma; 30.9 µM with PC-3 prostate. For the same molecule, the TGI is 43.1 µM with HCT-15 colon; 49.6 µM with NCI-H226 lung; 29.9 µM with BT-549 breast; 36.8 µM in the test with NCI-H23 lung; 31.4 µM in the test with U251 CNS; 44.9 µM in the test on KM12 colon.

`COc1ccc(-c2c(C#N)c(O)n(NS(=O)(=O)c3ccc(C)cc3)c(=O)c2C#N)cc1`: the TGI with NCI-H522 lung, in the test with HOP-92 NSCLC, with 786-0 renal, in the test with ACHN renal, with MALME-3M melanoma and in the test with PC-3 prostate was more than 100 µM throughout. In addition, the TGI with COLO 205 colon, in the test on HCT-15 colon, with NCI-H226 lung, in the test with BT-549 breast, with U251 CNS and in the test with KM12 colon was more than 100 µM in each case.

For `O=C(/C=C/C=C/c1ccccc1)c1ccc2c(c1)CCCC2`, the TGI with NCI-H522 lung was 37.7 µM; in the test on HOP-92 NSCLC, 89.9 µM; in the test with 786-0 renal it was more than 100 µM; with SR leukemia, 87.9 µM; in the test on ACHN renal it was more than 100 µM; in the test with PC-3 prostate, more than 100 µM. For the same molecule, the TGI in the test on COLO 205 colon is more than 100 µM; with HCT-15 colon, more than 100 µM; with NCI-H226 lung, 90.9 µM; with BT-549 breast it was 77.4 µM; in the test with NCI-H23 lung, more than 100 µM; in the test with U251 CNS it was more than 100 µM. This molecule also came in with a TGI with KM12 colon of more than 100 µM.

For `Cc1cn(CCCCCOC(=O)NC(CCCN=C(N)N)C(=O)O)c(=O)[nH]c1=O` (stereo not drawn), the TGI in the test on HOP-92 NSCLC was more than 100 µM; in the test on 786-0 renal, more than 100 µM; with SR leukemia, 30.8 µM; in the test on ACHN renal it was more than 100 µM; in the test on PC-3 prostate it was more than 100 µM; with COLO 205 colon it was 63.2 µM. The TGI in the test on HCT-15 colon, in the test on NCI-H226 lung, in the test with BT-549 breast, in the test with NCI-H23 lung, in the test with U251 CNS and in the test with KM12 colon was more than 100 µM in each case.

On to `O=P(O)(Cc1ccccc1)c1ccccc1-c1ccccc1`, for which the TGI with NCI-H522 lung, with 786-0 renal, in the test with SR leukemia, with ACHN renal, with MALME-3M melanoma and with PC-3 prostate was more than 100 µM in each case. Moreover, the TGI with COLO 205 colon, in the test on HCT-15 colon, in the test on NCI-H226 lung, in the test on BT-549 breast, in the test with NCI-H23 lung and in the test on U251 CNS was more than 100 µM in each case. This molecule had a TGI in the test with KM12 colon of more than 100 µM.

For the molecule `Oc1ccc(-c2nc(-c3ccc(F)cc3)c(-c3ccc4ccccc4n3)[nH]2)cc1`, the TGI was 66 µM with 786-0 renal; more than 100 µM with SR leukemia; 24.9 µM in the test with ACHN renal; 28.3 µM in the test with MALME-3M melanoma; 22.6 µM with PC-3 prostate; 29.7 µM in the test on COLO 205 colon. The TGI turned out to be 23.6 µM in the test with HCT-15 colon; 28.6 µM in the test on NCI-H226 lung; 36.6 µM in the test with BT-549 breast; 25.4 µM in the test on NCI-H23 lung; 24.4 µM with U251 CNS; 19.1 µM with KM12 colon.

For `CC(C)(C)c1cc(C(CO)OCCOCCO)cc(C(C)(C)C)c1O` (stereo not drawn), the TGI with NCI-H522 lung, in the test on HOP-92 NSCLC, with 786-0 renal, with ACHN renal, with MALME-3M melanoma and in the test on PC-3 prostate was more than 100 µM in each case. The TGI in the test with COLO 205 colon, in the test on HCT-15 colon, in the test with NCI-H226 lung, in the test with BT-549 breast, in the test on NCI-H23 lung and in the test with U251 CNS was more than 100 µM throughout. Also, the TGI in the test on KM12 colon was more than 100 µM.

On to `COc1ccc(CCN=C2OCc3ccccc32)cc1OC`, for which the TGI with HOP-92 NSCLC is more than 100 µM; in the test with 786-0 renal, more than 100 µM; in the test on SR leukemia it was 62.3 µM; in the test on ACHN renal, more than 100 µM; in the test on MALME-3M melanoma, more than 100 µM; in the test with PC-3 prostate it was more than 100 µM. Besides, the TGI in the test with COLO 205 colon, in the test on HCT-15 colon, in the test on NCI-H226 lung, in the test with BT-549 breast, in the test on NCI-H23 lung and in the test with U251 CNS was more than 100 µM each time. Also, the TGI in the test on KM12 colon was more than 100 µM.

As for `CCOC(=O)c1cc(C2(O)CCN(CC(C)CC)C2=O)c(-c2cc(C)no2)[nH]1` (stereo not drawn), the TGI with HOP-92 NSCLC, in the test on 786-0 renal, with SR leukemia, in the test with MALME-3M melanoma, with PC-3 prostate and in the test with COLO 205 colon was more than 100 µM throughout. Further, the TGI with HCT-15 colon, in the test on NCI-H226 lung, in the test on BT-549 breast, in the test with NCI-H23 lung, in the test on U251 CNS and with KM12 colon was more than 100 µM in each case.

Turning to `COC(=O)C1(OC(=O)Sc2ccccc2)CCN(C)CC1`, the TGI in the test on NCI-H522 lung was 35.1 µM; with 786-0 renal it was 50.3 µM; with SR leukemia it was 35.7 µM; in the test on ACHN renal, more than 54.1 µM; with MALME-3M melanoma, more than 100 µM; in the test with PC-3 prostate, more than 83.5 µM. Further, the TGI was 29.8 µM in the test on COLO 205 colon; more than 63.1 µM in the test with HCT-15 colon; 35.7 µM in the test with NCI-H226 lung; 7.04 µM with BT-549 breast; 50.2 µM with NCI-H23 lung; 40.6 µM in the test with U251 CNS. Further, the TGI in the test with KM12 colon was more than 47.4 µM.
